PubChem BioAssay (NCI)
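Protocol summary: plate cells (96-well), add compound at 5 concentrations, incubate 48 h, interpolate endpoints linearly. GI50 is the concentration that inhibits growth by half. TGI: concentration producing complete growth inhibition.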

Tests used:
Assay in all cases: NCI tumour cell line growth inhibition, 48 h
UACC-62 melanoma = test system: UACC-62 melanoma
MDA-MB-231 breast = test system: MDA-MB-231 breast
NCI-H226 lung = test system: NCI-H226 lung
CAKI-1 renal = test system: CAKI-1 renal
MALME-3M melanoma = test system: MALME-3M melanoma
SR leukemia = test system: SR leukemia
MOLT-4 leukemia = test system: MOLT-4 leukemia
OVCAR-3 ovarian = test system: OVCAR-3 ovarian
U251 CNS = test system: U251 CNS
NCI-H23 lung = test system: NCI-H23 lung
OVCAR-5 ovarian = test system: OVCAR-5 ovarian
NCI-H460 lung = test system: NCI-H460 lung
SK-MEL-2 melanoma = test system: SK-MEL-2 melanoma
UO-31 renal = test system: UO-31 renal
SK-MEL-28 melanoma = test system: SK-MEL-28 melanoma
MDA-MB-435 = test system: MDA-MB-435
NCI-H522 lung = test system: NCI-H522 lung
PC-3 prostate = test system: PC-3 prostate
SN12C renal = test system: SN12C renal
UACC-257 melanoma = test system: UACC-257 melanoma
HCT-15 colon = test system: HCT-15 colon
DU-145 prostate = test system: DU-145 prostate
NCI/ADR-RES ovarian = test system: NCI/ADR-RES ovarian
HT29 colon = test system: HT29 colon
CCRF-CEM leukemia = test system: CCRF-CEM leukemia
EKVX NSCLC = test system: EKVX NSCLC
SF-295 CNS = test system: SF-295 CNS
A549 NSCLC = test system: A549 NSCLC
SK-OV-3 ovarian = test system: SK-OV-3 ovarian

Nc1nc2c(c3ncccc13)C(c1cccc(Br)c1)Cc1ncccc1-2 (configuration not stated)
TGI (UACC-62 melanoma): 17.4 µM | GI50 (MDA-MB-231 breast): 1.65 µM | TGI (MDA-MB-231 breast): 18 µM | GI50 (NCI-H226 lung): 18.8 µM | TGI (NCI-H226 lung): 67.4 µM | GI50 (CAKI-1 renal): 0.749 µM | TGI (CAKI-1 renal): 50.4 µM | GI50 (MALME-3M melanoma): 11.5 µM | TGI (MALME-3M melanoma): 31.4 µM | GI50 (SR leukemia): 0.377 µM | TGI (SR leukemia): 32.7 µM | GI50 (MOLT-4 leukemia): 0.705 µM | TGI (MOLT-4 leukemia): 31.8 µM | GI50 (OVCAR-3 ovarian): 0.28 µM | TGI (OVCAR-3 ovarian): 0.858 µM | GI50 (U251 CNS): 0.625 µM | TGI (U251 CNS): 12.7 µM | GI50 (NCI-H23 lung): 4.52 µM | TGI (NCI-H23 lung): 33 µM | GI50 (OVCAR-5 ovarian): 7.84 µM | TGI (OVCAR-5 ovarian): 31.1 µM | GI50 (NCI-H460 lung): 0.492 µM | TGI (NCI-H460 lung): 11 µM | GI50 (SK-MEL-2 melanoma): 0.871 µM | TGI (SK-MEL-2 melanoma): 29.6 µM | GI50 (UO-31 renal): 2.6 µM | TGI (UO-31 renal): 24.2 µM | GI50 (SK-MEL-28 melanoma): 2.74 µM | TGI (SK-MEL-28 melanoma): 22.6 µM | GI50 (MDA-MB-435): 0.256 µM | TGI (MDA-MB-435): 0.761 µM | GI50 (NCI-H522 lung): 0.503 µM | TGI (NCI-H522 lung): 11.6 µM | GI50 (PC-3 prostate): 0.791 µM | TGI (PC-3 prostate): 18.5 µM | GI50 (SN12C renal): 3.51 µM | TGI (SN12C renal): 33.8 µM | GI50 (UACC-257 melanoma): 18.2 µM | TGI (UACC-257 melanoma): 54.7 µM | GI50 (HCT-15 colon): 0.504 µM | TGI (HCT-15 colon): 15.1 µM | GI50 (DU-145 prostate): 1.13 µM | TGI (DU-145 prostate): 13.7 µM | GI50 (NCI/ADR-RES ovarian): 0.408 µM | TGI (NCI/ADR-RES ovarian): 15.1 µM | GI50 (HT29 colon): 0.422 µM | TGI (HT29 colon): 11.4 µM | GI50 (CCRF-CEM leukemia): 0.726 µM | TGI (CCRF-CEM leukemia): 38.6 µM | GI50 (EKVX NSCLC): 3.07 µM | TGI (EKVX NSCLC): 80.8 µM | GI50 (SF-295 CNS): 0.828 µM | TGI (SF-295 CNS): 12.4 µM | GI50 (A549 NSCLC): 1.88 µM | TGI (A549 NSCLC): 39.2 µM | GI50 (SK-OV-3 ovarian): 0.74 µM | TGI (SK-OV-3 ovarian): 17.4 µM
